The data set can be described thus: gradient 5% acetonitrile 3 min, to 50% in 2 min, to 85% in 15 min, held 3 min, 100 µL/min. As to conditions: column: Zorbax Extend-C18 2.1 x 50 mm; eluents: water / acetonitrile, 0.1% formic acid. A digest of the protocol:
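Pure standards were analyzed in mixtures of ~100 molecules using HPLC coupled to a quadrupole time-of-flight mass spectrometer, in both positive and negative ionization mode. Separation used a Zorbax Extend-C18 column (2.1 × 50 mm, 1.8 μm) at 100 μL/min, with water and acetonitrile each containing 0.1% formic acid. Dead and dwell volumes were 40 μL and 900 μL, and data were collected over 3 months. Retention time was read from computationally picked adduct peaks, each inspected manually.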
The molecule `Cc1ccn2cc(-c3ccc(NS(=O)(=O)c4ccc5cccc6c5c4CC6)cc3)nc2n1` displayed an RP-LC retention time of 748 s.
The molecule `CCCn1cc(C(=O)Nc2ccc3c(c2)OCCO3)c(=O)c2ccc(C)nc21` displayed an RP-LC retention time of 1070 s.
The same measure for `Cn1ncc(Cl)c1C(=O)N1CCCC1c1cccc(F)c1` (centres undefined): 813 s; for `CN(Cc1nc2cc(C(=O)N3CCCC3)ccc2n1C)C(=O)Nc1ccc(F)cc1F`: 607 s.
To `O=C(C1CCC1)N1CCc2sc(S(=O)(=O)Nc3ccc(F)c(Cl)c3)cc2C1` belongs 948 s; to `Cn1c(=O)c(-c2ccc(C(=O)NC3CCCCC3)cc2)nc2cccnc21`, 882 s.
To `COc1ccccc1C(=O)N1CCC2(CC1)OCCN2S(=O)(=O)c1ccc(F)c(C)c1` belongs 835 s.
Consider `COc1ccc(-c2nnc(-c3ccc(C)c(S(=O)(=O)N4CCC(C)CC4)c3)o2)cc1`, for which the RP-LC retention time was found to be 1220 s.
The same measure for `CCOc1ccc(NC(=O)C2CCCN(c3ncnc4c3oc3ccccc34)C2)cc1` (centres undefined): 816 s.
To `Cc1cc(C)c2c(N)c(C(=O)Nc3cccc4cccnc34)sc2n1` belongs 1080 s; to `CS(=O)(=O)c1ccc2nc(NC(=O)c3coc(NC(=O)c4cccs4)n3)sc2c1`, 685 s; to `COc1cc(NC(=O)Cn2nc3c4cc(C)ccc4ncn3c2=O)cc(OC)c1`, 682 s.
To `CC(C)c1noc(-c2ccc(-n3cnc(C(=O)NC4CCCC4)c3)nc2)n1` belongs 915 s; to `Clc1ccc(-c2csc(N3CCC(c4ccccc4)C3)n2)cc1` (centres undefined), 814 s.
`CCn1c(N2CCN(C(=O)Nc3cccc(C(C)=O)c3)CC2)nc2ccccc21` yielded an RP-LC retention time of 576 s.
`Cn1cc(CCNC(=O)c2ccccc2Br)c2cccnc21`: the RP-LC retention time was determined as 660 s.
The same measure for `CN1CCC(Cc2ccc(C(=O)O)cc2)CC1`: 569 s.
`Cc1cccc(N2C(=O)C(O)=C(C(=O)c3cccs3)C2c2ccc(Cl)cc2)n1` (centres undefined) showed an RP-LC retention time of 1040 s.
The same measure for `CCCn1cc(C(=O)NC(C)CC)c2nn(-c3ccccc3)c(=O)c-2c1` (centres undefined): 880 s; for `COc1ccc(OC)c(CNC(=O)c2c(C)sc3ccn(CC(C)C)c(=O)c23)c1`: 975 s; for `O=C(NCC1CC1)C1(CCO)CCN(Cc2ccccc2)C1` (centres undefined): 581 s.
The same measure for `CC1CCN(S(=O)(=O)c2ccc3nn(Cc4ccc(F)cc4)c(=O)n3c2)CC1`: 1020 s; for `CCCNC(=O)N1CC(Oc2ccc(-c3nc(C)no3)cc2)C1`: 745 s; for `CN1C(=O)c2cccnc2Sc2cc(NC(=O)c3ccc(Br)o3)ccc21`: 788 s.
The same measure for `COc1ccc(-c2nc3ccc(Br)cn3c2Nc2ccccc2C)cc1`: 830 s.
In turn, `O=C([C@@H]1C[C@H](F)CN1S(=O)(=O)c1ccc(F)cc1)N1CCCCC1` registered an RP-LC retention time of 784 s.
The same measure for `CCOC(=O)C1CCc2sc(NC(=O)c3cc(-c4cccs4)[nH]n3)nc21` (centres undefined): 835 s; for `CCn1cc(C(=O)NCc2ccc(F)cc2)c2cccnc21`: 771 s.
Turning to `O=C(Cc1csc(NC(=O)NC2CCCCC2)n1)NCc1c(F)cccc1F`, the RP-LC retention time is 737 s.
The same measure for `O=c1ccn(-c2ccc(Cl)cc2)nc1-c1nc(-c2ccccc2Cl)no1`: 963 s; for `Cc1cc(N2CCCC2)nc(N2CCN(C(=O)CCC3CCCCC3)CC2)n1`: 825 s.
The same measure for `COc1ccc(-c2cn3ccn(-c4ccc(OC)c(Cl)c4)c(=O)c3n2)cc1`: 1240 s; for `Cc1ccc(S(=O)(=O)N2C(=O)CCC2C(=O)NCc2nc(-c3ccc(Cl)cc3)no2)cc1` (centres undefined): 951 s.
To `COc1ccc2c(c1)C1(CCN(C(=O)Nc3cccc(C)c3)C1)C(=O)N2C` (centres undefined) belongs 809 s.
`CCCCn1c(CN2CCCC2)nc2cc(NC(=O)c3ccco3)ccc21` yielded an RP-LC retention time of 626 s.
To `CCCn1nccc1-c1csc(S(=O)(=O)NC(C)(C)CC)c1` belongs 975 s; to `CCc1ccc(/C=C2/SC(=S)NC2=O)cc1`, 1070 s; to `COc1cccc2cc(-c3nnc(NC(=O)c4ccc5ncsc5c4)o3)oc12`, 725 s.
To `COc1ccc(Oc2cc3c(cc2NS(=O)(=O)c2ccc(OC)c(OC)c2)n(C)c(=O)n3C)cc1` belongs 821 s.
Take `Brc1ccc2nc(N3CCNCC3)sc2c1`: the RP-LC retention time was 557 s.
With `CCCCN1CCN(S(=O)(=O)c2cc(-c3nnc(CC)o3)co2)CC1`, the RP-LC retention time is 608 s.
On to `O=C(NCCC1CCN(S(=O)(=O)c2ccc(F)cc2)CC1)Nc1ccc(F)cc1F`, for which the RP-LC retention time is 935 s.
`CCOc1ccc(-c2cc(SCc3cccnc3)ncn2)cc1` came in with an RP-LC retention time of 690 s.
The same measure for `Cc1cccc(NC(=O)Cn2c(N)nc(C)cc2=O)c1`: 601 s.
The same measure for `COc1cccc(-c2ccc(=O)n(Cc3nc(-c4ccccc4Cl)no3)n2)c1`: 931 s; for `Cc1ccc(CC(=O)N2CCc3nc(-c4ccc(Cl)cc4)ncc3C2)cc1`: 1150 s.
Molecule `Cc1cccc(CNC(=O)C2CCCN2S(=O)(=O)c2cc3c(cc2Cl)NC(=O)CO3)c1` (centres undefined) came in with an RP-LC retention time of 868 s.
The same measure for `COc1ccc(-c2cc3c(=O)n(Cc4noc(CN(C)C5CCCCC5)n4)ccn3n2)cc1`: 671 s; for `CC(C)C(=O)Nc1ccc(C(=O)NCCNS(=O)(=O)N(C)C)cc1`: 631 s; for `CNC(=O)C1CCCN(c2nc3ncn(CC(=O)Nc4ccc(C)cc4C)c(=O)c3s2)C1` (centres undefined): 646 s.
The same measure for `CCCCS(=O)(=O)N1CCC2(CC1)NCCCN=C2Nc1cccc(F)c1`: 677 s; for `COc1ccc(CNC(=O)Cn2c(C)nc3c(sc4nc(-c5ccccc5)ccc43)c2=O)cc1`: 970 s.
`O=c1ccc(-c2ccccc2)nn1CCc1nc(-c2cccc(Br)c2)no1` gave an RP-LC retention time of 1090 s.
To `Cc1ccc(-c2noc(C3CC(=O)N(c4ccc5c(c4)OCO5)C3)n2)cc1` (centres undefined) belongs 955 s.
To `CCOC(=O)c1c(S(=O)(=O)N2CCC(C(=O)Nc3ccc(C)c(C)c3)CC2)c(C)n(CC)c1C` belongs 975 s; to `O=C(Nc1nc2c(s1)COc1ccccc1-2)c1cc(Cl)ccc1Cl`, 1030 s.
The same measure for `CSc1nnc(NC(=O)CN(C)S(C)(=O)=O)s1`: 603 s; for `Cc1cccc([N+](=O)[O-])c1NC(=O)C1CCCN(c2ccc(-n3cccn3)nn2)C1` (centres undefined): 711 s.
`CCn1nnc2cc(-c3noc(-c4ccc(NC(C)=O)cc4)n3)ccc21` returned an RP-LC retention time of 812 s.
To `Cc1ccnc(N2CCCC(C(=O)NC3CCCC3)C2)n1` (centres undefined) belongs 674 s; to `Cc1ccc2oc(C(=O)Nc3ccnn3Cc3ccccc3)cc(=O)c2c1`, 835 s.
Turning to `CCS(=O)(=O)N1CCCc2cc(C(=O)N3CCOCC3)ccc21`, the RP-LC retention time was found to be 679 s.
To `COc1ccc(N2CCN(C(=O)c3ccc4c(c3)CC(=O)N4C)CC2)cc1` belongs 801 s; to `Clc1ccc(-c2nnc(Cc3nc(-c4cccs4)no3)o2)cc1`, 1000 s.
The same measure for `Cc1ccc(CN2CCCn3nc(C(=O)NCc4ccco4)cc3C2=O)cc1`: 804 s; for `Cc1ccccc1CNC(=O)CN1C(=O)CCCc2cc(S(=O)(=O)N3CCCC3)ccc21`: 916 s.
To `O=C(c1ccc(Cl)nc1)N1CCCC1c1nc(-c2cccc(C(F)(F)F)c2)no1` (centres undefined) belongs 1070 s; to `Cc1cc2c(c(=O)n(-c3ccccc3)c(=O)n2CC(=O)Nc2ccccc2C(F)(F)F)n1C`, 904 s.
For the molecule `COC(=O)c1ncn2c1C(=O)N(Cc1ccc(F)cc1Cl)C(C)(C(=O)NCc1ccccc1)C2` (centres undefined), the RP-LC retention time came to 771 s.
With `Cc1nc(C(=O)Nc2ccc(F)c(Cl)c2)c(C)o1`, the RP-LC retention time was determined as 958 s.
The same measure for `Cn1ncc2c(N3CCN(c4ccc(F)cc4)CC3)ncnc21`: 802 s; for `COc1ccc(NC(=O)Cn2c(=O)c3cc(C4CC4)nn3c3ncccc32)cc1Cl`: 807 s; for `O=C(NCc1csc(C2CCN(C(=O)c3ccccc3Cl)CC2)n1)C1CCC1`: 725 s.
In turn, `O=C(c1ccc2nc(-c3ccccc3)cn2c1)N1CCOCC1` gave an RP-LC retention time of 580 s.
With `Cc1cc(-c2nnc(-c3ccc(F)cc3)o2)c(C)n1CC(=O)Nc1ccccc1`, the RP-LC retention time worked out at 977 s.
On to `Cc1ccc(C)c(S(=O)(=O)N2CC=C(c3cn(C)c4ncccc34)CC2)c1`, for which the RP-LC retention time was 1070 s.
`CCc1ccc(S(=O)(=O)N2CCC(c3nc(C(=O)N4CCOCC4)c(C)o3)CC2)cc1` had an RP-LC retention time of 904 s.
The same measure for `CCOC(=O)c1cnc2nc(C)ccc2c1Nc1ccc(OC)c(OC)c1`: 587 s; for `CC1CCCCN1CCNC(=O)Cn1c(=O)c2cccn2c2ccc(F)cc21` (centres undefined): 612 s.

Values taken from the METLIN SMRT retention time set (Domingo-Almenara et al. 2019).
